From patent US9149038B2, “4-amino-6-(heterocyclic)picolinates and 6-amino-2-(heterocyclic)pyrimidine-4-carboxylates and their use as herbicides” (Dow AgroSciences LLC, priority 2013, dated 2015)
Read-outs that look alike come from different tables or passages of the source.

Tested on: Wheat and Barley and weed species
Experiment: Post-Emergent Test III: postemergent herbicidal activity in wheat and barley, visual rating after 21 d and probit GR20/GR50/GR80/GR90 (Tables 9-13)
Type: in vivo
Conditions: for pest or weed control at 35 g/ha / pest or weed control at 70 g/ha / pest or weed control at 140 g/ha: post-emergence, 504 h
How it was run: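 Greenhouse plants (~18/17 °C, 14 h photoperiod) at second–third true leaf stage sprayed at 187 L/ha with a high rate and ½× to 1/16× serial dilutions. Visual injury 0–100% versus solvent-blank controls scored at 21 d; GR20, GR50, GR80 and GR90 derived by probit analysis across rates.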

COC(=O)c1nc(-c2c(F)cc3c(c2F)OC(F)(F)O3)cc(N)c1Cl [Compound 46]
GR50 ALOMY (ALOMY black-grass (Alopecurus myosuroides), growth reduction of 50%, probit analysis): 18 g ai/ha | GR80 ALOMY (ALOMY black-grass (Alopecurus myosuroides), growth reduction of 80%, probit analysis): 35 g ai/ha | GR90 ALOMY (ALOMY black-grass (Alopecurus myosuroides), growth reduction of 90%, probit analysis): 49 g ai/ha | GR50 APESV (APESV bentgrass (Apera spica-venti), growth reduction of 50%, probit analysis): 88 g ai/ha | GR80 APESV (APESV bentgrass (Apera spica-venti), growth reduction of 80%, probit analysis): >140 g ai/ha | GR90 APESV (APESV bentgrass (Apera spica-venti), growth reduction of 90%, probit analysis): >140 g ai/ha | GR20 HORVS (HORVS barley, spring (crop), growth reduction of 20%, probit analysis): 8 g ai/ha | pest or weed control at 35 g/ha (Hordeum vulgare, HORVS barley, spring (crop), 35 g ai/ha, read-out: Visual Growth Reduction (%) 21 Days After Application HORVS): 45 to 59% | pest or weed control at 70 g/ha (Hordeum vulgare, HORVS barley, spring (crop), 70 g ai/ha, read-out: Visual Growth Reduction (%) 21 Days After Application HORVS): 60 to 74% | pest or weed control at 140 g/ha (Hordeum vulgare, HORVS barley, spring (crop), 140 g ai/ha, read-out: Visual Growth Reduction (%) 21 Days After Application HORVS): 85 to 94% | Visual Growth Reduction (%) 21 Days After Application KCHSC (KCHSC kochia (Kochia scoparia), 35 g ai/ha): B (85-94) | Visual Growth Reduction (%) 21 Days After Application KCHSC (KCHSC kochia (Kochia scoparia), 70 g ai/ha): A (95-100) | Visual Growth Reduction (%) 21 Days After Application KCHSC (KCHSC kochia (Kochia scoparia), 140 g ai/ha): A (95-100) | GR50 KCHSC (KCHSC kochia (Kochia scoparia), growth reduction of 50%, probit analysis): 1 g ai/ha | GR80 KCHSC (KCHSC kochia (Kochia scoparia), growth reduction of 80%, probit analysis): 7 g ai/ha | GR90 KCHSC (KCHSC kochia (Kochia scoparia), growth reduction of 90%, probit analysis): 17 g ai/ha | GR50 LOLSS (LOLSS ryegrass, growth reduction of 50%, probit analysis): 91 g ai/ha | GR80 LOLSS (LOLSS ryegrass, growth reduction of 80%, probit analysis): >140 g ai/ha | GR90 LOLSS (LOLSS ryegrass, growth reduction of 90%, probit analysis): >140 g ai/ha | GR50 SETVI (SETVI green foxtail (Setaria viridis), growth reduction of 50%, probit analysis): 106 g ai/ha | GR80 SETVI (SETVI green foxtail (Setaria viridis), growth reduction of 80%, probit analysis): >140 g ai/ha | GR90 SETVI (SETVI green foxtail (Setaria viridis), growth reduction of 90%, probit analysis): >140 g ai/ha | GR20 TRZAS (TRZAS wheat, spring (crop), growth reduction of 20%, probit analysis): 10 g ai/ha | pest or weed control at 35 g/ha (Triticum aestivum, TRZAS wheat, spring (crop), 35 g ai/ha, read-out: Visual Growth Reduction (%) 21 Days After Application TRZAS): 60 to 74% | pest or weed control at 70 g/ha (Triticum aestivum, TRZAS wheat, spring (crop), 70 g ai/ha, read-out: Visual Growth Reduction (%) 21 Days After Application TRZAS): 75 to 84% | pest or weed control at 140 g/ha (Triticum aestivum, TRZAS wheat, spring (crop), 140 g ai/ha, read-out: Visual Growth Reduction (%) 21 Days After Application TRZAS): 85 to 94% | pest or weed control at 35 g/ha (ALOMY black-grass (Alopecurus myosuroides), 35 g ai/ha, read-out: Visual Growth Reduction (%) 21 Days After Application ALOMY): 60 to 74% | pest or weed control at 70 g/ha (ALOMY black-grass (Alopecurus myosuroides), 70 g ai/ha, read-out: Visual Growth Reduction (%) 21 Days After Application ALOMY): 95 to 100% | pest or weed control at 140 g/ha (ALOMY black-grass (Alopecurus myosuroides), 140 g ai/ha, read-out: Visual Growth Reduction (%) 21 Days After Application ALOMY): 95 to 100% | pest or weed control at 35 g/ha (APESV bentgrass (Apera spica-venti), 35 g ai/ha, read-out: Visual Growth Reduction (%) 21 Days After Application APESV): 0 to 29% | pest or weed control at 70 g/ha (APESV bentgrass (Apera spica-venti), 70 g ai/ha, read-out: Visual Growth Reduction (%) 21 Days After Application APESV): 45 to 59% | pest or weed control at 140 g/ha (APESV bentgrass (Apera spica-venti), 140 g ai/ha, read-out: Visual Growth Reduction (%) 21 Days After Application APESV): 60 to 74% | pest or weed control at 35 g/ha (LOLSS ryegrass, 35 g ai/ha, read-out: Visual Growth Reduction (%) 21 Days After Application LOLSS): 0 to 29% | pest or weed control at 70 g/ha (LOLSS ryegrass, 70 g ai/ha, read-out: Visual Growth Reduction (%) 21 Days After Application LOLSS): 45 to 59% | pest or weed control at 140 g/ha (LOLSS ryegrass, 140 g ai/ha, read-out: Visual Growth Reduction (%) 21 Days After Application LOLSS): 60 to 74% | pest or weed control at 35 g/ha (SETVI green foxtail (Setaria viridis), 35 g ai/ha, read-out: Visual Growth Reduction (%) 21 Days After Application SETVI): 0 to 29% | pest or weed control at 70 g/ha (SETVI green foxtail (Setaria viridis), 70 g ai/ha, read-out: Visual Growth Reduction (%) 21 Days After Application SETVI): 30 to 44% | pest or weed control at 140 g/ha (SETVI green foxtail (Setaria viridis), 140 g ai/ha, read-out: Visual Growth Reduction (%) 21 Days After Application SETVI): 60 to 74%
